# Test results as given in US20140041062A1, “GENETICALLY ENGINEERED MOUSE MODEL FOR AUTISM SPECTRUM DISORDER HAVING DELETION OF SHANK2 GENE AND USE THEREOF” (Industry-Academic Cooperation Foundation, Yonsei University, priority 2012, published 2014).
# Entries after “also recorded” stand apart in the source; their conditions may differ.
# Columns and labels:
# NMDAR = experiment: NMDA/AMPA ratio at hippocampal SC-CA1 synapses of Shank2−/− slices; format: cell-based, mouse; conditions: for NMDA/AMPA ratio: Shank2−/− SC-CA1 synapses / slices; for NMDAR function: Shank2−/− mice, figure legend
# Text: Thus, the present inventors measured the NMDA/AMPA ratio at Shank2^−/− SC-CA1 synapses. Indeed, the NMDA/AMPA ratio was reduced relative to wild-type synapses (FIG. 2e).
# Reduced NMDAR function and associated signaling may contribute to autism spectrum disorder (ASD)-like behaviors in Shank2^−/− mice.
# (§1) Consistent with previous findings, CDPPB also normalized the NMDA/AMPA ratio in Shank2^−/− slices (FIG. 4a). […] The smaller extents of signaling deficits in older mice (8 weeks) relative to younger mice (3-4 weeks) may reflect age-dependent reductions in NMDAR-mediated currents, and/or compensatory changes in NMDAR signaling.
# [1] = system: neuroligin-1-deficient mice; conditions: neuroligin-1-deficient mice with reduced NMDA/AMPA ratio; cited from earlier work
# Shank2−/− mice [2] = experiment: Three-chamber social interaction assay; format: in vivo, mouse
# Description: The three-chamber social interaction assay consisted of three phases. In the first phase, a wild-type or Shank2^−/− mouse was placed in the three-chambered apparatus with two small containers in the left or right (not center) chamber, and was allowed to explore the environment freely for 10 min for habituation. After 10 min, the wild-type or Shank2^−/− mouse was gently guided to the center chamber, and the two entrances to the center chamber were blocked while an inaminate object (Object) and a stranger mouse (Stranger 1) were placed in the two containers. Then, the two entrances were opened to allow the mouse in the center to explore the new environment freely for 10 min. In the third phase, the test mouse was gently guided to the center chamber again, with the blockade of the entrances. The Object was replaced with Stranger 2, followed by exploration of the Stranger 1 or 2 by the test mouse for 10 min. Exploration was defined as each instance in which wild-type or Shank2^−/− mouse tries to sniff Object/Stranger, or orients its nose towards and come close to Object/Stranger. Time spent in each chamber was measured by Ethovision 3.1 program (Noldus). Individual movement tracks were analyzed by Ethovision and modified by ImageJ to generate heat maps. In addition to time spent in chamber or in exploration, the present inventors used the preference index, which represents a difference in percent exploration time over the targets (Wang, X. et al. Hum Mol Genet 20, 3093-108 (2011)).
# (§2) CDPPB (Ascent scientific) was dissolved in DMSO and polyethylene glycol 400 (DMSO:PEG 400=1:9) to a final concentration of 6 g/l. Wild-type and Shank2^−/− mice received intraperitoneal injection of CDPPB (10 or 3 mg/kg), or the same volume of DSMO-PEG400 mixture, 30 min before three-chamber or other behavioral assays and 40 min before brain sample preparation for immunoblot analyses. D-cycloserine (Ascent Scientific) was dissolved in saline to final concentration of 12 g/l. Wild-type and Shank2^−/− mice received intraperitoneal injection of D-cycloserine (20 mg/kg), or the same volume of saline, 30 min before three-chamber assays.
# autism = conditions: cited from earlier work
# Shank2−/− mice [3] = experiment: Open field assay (hyperactivity); format: in vivo, mouse; conditions: CDPPB i.p.
# Description: The size of the open field box was 40×40×40 cm, and the center zone line was 10 cm apart from the edge. Mice were placed in the center of chamber in the beginning of assay, and mouse movements were recorded with a video camera for 60 min, and analyzed by Ethovision 3.1 program (Noldus).
# as §2
# SC-CA1 synapses = experiment: Synaptic plasticity (LTP, LTD) and basal transmission at SC-CA1 synapses of Shank2−/− mice; format: cell-based, mouse
# Description: Next, the present inventors measured synaptic transmission at hippocampal Schaffer collaterals-CA1 pyramidal (SC-CA1) synapses. Basal excitatory transmission such as input-output and paired-pulse ratio was unchanged in Shank2^−/− mice (FIGS. 2a and 2b). In addition, spontaneous transmission and membrane excitability were normal in mutant animals. When synaptic plasticity was tested, long-term potentiation (LTP) induced by high frequency stimulation or theta-burst stimulation were severely impaired in Shank2^−/− mice (FIG. 2c). Long-term depression (LTD) induced by low-frequency stimulation was completely abolished also in Shank2^−/− mice (FIG. 2d). Because LTD induced by low-frequency stimulation activates both NMDA and metabotropic glutamate receptors (NMDARs and mGluRs), the present inventors isolated mGluR-LTD by bath-applying DHPG, an agonist of mGluR5, but found no difference between genotypes.
# as §1
# Shank2−/− mice [4] = experiment: Anxiety-like behavior (elevated plus-maze, light-dark test); format: in vivo, mouse; conditions: CDPPB i.p.
# Description: The elevated plus-maze consisted of two open arms, two closed arms, and a center area, elevated to a height of 50 cm above the floor. Mice were placed in the center area and allowed to explore the space for 8 min.
# The apparatus for light-dark test consisted of light (˜600 lx) and dark (˜5 lx) chambers adhered to each other. An entrance enabled mice to freely move across the light and dark chambers. The size of light chamber was 20×30×20 cm, and that of dark chamber was 20×13×20 cm. Mice were introduced to the center of the light chamber with their heads pointing towards the opposite side of the dark chamber, and allowed to explore the apparatus freely for 10 min. The latency to enter the dark chamber, the time spent in dark and light chambers, and the number of transitions were measured. Transition was defined as the translocation of all four feet of a mouse from one to another chamber.
# as §2, with “Wild-type and Shank2^−/− mice received intraperitoneal injection of D-cycloserine (20 mg/kg), or the same volume of saline, 30 min before three-chamber assays.” left out
# LTP and LTD = conditions: cited from earlier work
# Shank3 knockdown = conditions: caused by Shank3 knockdown; cited from earlier work
# Shank2−/− mice [5] = experiment: Repetitive behaviors (jumping) in home cage; format: in vivo, mouse; conditions: CDPPB i.p.
# Description: Mice in their home cages with fresh bedding were used to measure times spent in repetitive behaviors including jumping, upright scrabbling, grooming, and digging during 10 min. Jumping was defined as the behavior of a mouse where it rears on it hind legs at the corner of the cage, or along the side walls, and jumps so that the two hind legs are simultaneously off the ground. Upright scrabbling was defined as the behavior of a mouse where it rears on it hind legs at the corner of the cage, or along the side walls, and tries to climb up against the wall with the two hind legs alternatively or coordinately touching the ground. Grooming behavior was defined as stroking or scratching of face, head, or body with the two forelimbs, or licking body parts. Digging behavior was defined as the behavior of a mouse where it coordinately uses two fore legs or hind legs to dig out or displace bedding materials.
# as §2, with “Wild-type and Shank2^−/− mice received intraperitoneal injection of D-cycloserine (20 mg/kg), or the same volume of saline, 30 min before three-chamber assays.” left out
# Shank2−/− mice [6] = experiment: Pup retrieval assay; format: in vivo, mouse; conditions: CDPPB i.p.
# Description: Virgin female mice were isolated for four days before pup retrieval assays. Three normal pups (1-d old; C57BL/6N) were placed at three different corners of a home cage of a test female mouse (wild-type or Shank2^−/−), and the female mouse was allowed to retrieve the pups for 10 min. Efficiency of pup retrieval was measured by the time taken to retrieve the first, second, and third pups.
# as §2
# NMDAR signaling = experiment: Immunoblot analysis of NMDAR signaling in Shank2−/− whole brains and synaptosomes after CDPPB treatment; format: in vivo, mouse; conditions: CDPPB i.p. 40 min before brain sample preparation
# Description: For whole brain homogenates, mouse brains (3-4 wks) were briefly homogenized in 3 volumes of ice-cold homogenization buffer (0.32 M sucrose, 10 mM HEPES pH7.4, 2 mM EDTA, protease inhibitors, phosphatase inhibitors). Protein concentrations were measured by the Bradford assay. The relative amount of […]α-tubulin was used as a loading control. Synaptosomal fractions were prepared (Blackstone, C. D. et al., J Neurochem 58, 1118-26 (1992)).
# as §2
# Shank2 deletion may also affect NMDAR-associated signaling that it critically regulates various synaptic events including LTP and LTD (Zhu, J. J. et al. Cell 110, 443-55 (2002); Shepherd, J. D. & Huganir, R. L. Annu Rev Cell Dev Biol 23, 613-43 (2007)). […]
compound,measurement,setting,value
N[C@@H]1CONC1=O [D-cycloserine],NMDA/AMPA ratio,NMDAR,fully recovered
same,NMDAR function,NMDAR,normalizes
same,repetitive grooming,[1],rescue
same,social interaction,Shank2−/− mice [2]; D-cycloserine 20 mg/kg i.p. 30 min before assay,improved
GLYX-13,therapeutic effect on autism,autism,showed a therapeutic effect
N#Cc1cccc(C(=O)Nc2cc(-c3ccccc3)nn2-c2ccccc2)c1 [CDPPB],hyperactivity,Shank2−/− mice [3],did not rescue
same,NMDA/AMPA ratio,NMDAR,normalized
same,NMDAR function,NMDAR,normalizes
same,basal synaptic transmission,SC-CA1 synapses,without affecting
same,impaired LTD at SC-CA1 synapses,SC-CA1 synapses,restored
same,impaired LTP at SC-CA1 synapses,SC-CA1 synapses,restored
same,anxiety-like behaviors,Shank2−/− mice [4],did not rescue
same,LTP and LTD,LTP and LTD,enhance
same,spatial learning,LTP and LTD,enhance
same,reduced ERK phosphorylation,Shank3 knockdown,restores
same,reduced excitatory transmission,Shank3 knockdown,restores
same,repeated jumping,Shank2−/− mice [5],did not rescue
same,impaired pup retrieval,Shank2−/− mice [6],did not rescue
same,NMDAR signaling in synaptosomes,NMDAR signaling; Shank2−/− synaptosomes,fully normalized
same,NMDAR signaling in whole brains,NMDAR signaling; Shank2−/− whole brains,fully normalized
same,social interaction,Shank2−/− mice [2]; CDPPB 10 mg/kg i.p. 30 min before assay,substantially improves; also recorded: substantial recoveries
same,social novelty recognition,Shank2−/− mice [2]; CDPPB i.p.,no effect
same,"social interaction, lower-dose",Shank2−/− mice [2]; lower-dose CDPPB (3 mg/kg i.p.),did not rescue
O=C(Nc1cc(-c2ccccc2)nn1-c1ccccc1)c1ccc([N+](=O)[O-])cc1 [VU-29],LTP and LTD,LTP and LTD,enhance
same,spatial learning,LTP and LTD,enhance
